Results from patent publication US10112890B2, “Compound, salt of compound, external agent for skin, cosmetic, and food additive” (SHOWA DENKO K.K., priority 2015, dated 2018).

System: three-dimensionally cultured human skin model ("EPI-606X")
Assay: Skin permeability test
Format: in vitro ADME
Settings: 24 hours; for Permeability (%): permeability into the skin model, 0.2% by mass sample solution in PBS (-), pH 7.4, 700 μL, 37° C., skin model extract plus receiver liquid, HPLC, (A/1400)×100; for permeability compared with compound (9)-101 / permeability compared with sodium pantothenate: skin model, comparison in words
Text: The compound (1)-301, the compound (1)-302, the compound (9)-101, and sodium pantothenate (manufactured by Tokyo Kasei Kogyo Co., Ltd., the compound represented by the following formula) were respectively dissolved in Dubecco's PBS (−), and the pH of a solution was adjusted to 7.4 using a sodium hydroxide aqueous solution or hydrochloric acid, to obtain a solution having a concentration of 0.2% by mass as a sample solution. A three-dimensionally cultured human skin model (“EPI-606X”, manufactured by KURABO INDUSTRIES LTD.) was set such that the lower portion thereof was immersed in a 6-well plate containing the PBS solution (1 mL), and was allowed to stand in an incubator for 30 minutes under conditions of 37° C. at a carbon dioxide concentration of 5%. Next, the PBS solution was replaced with an HBSS (−) solution (1 mL) (hereinafter, referred to as a “receiver liquid”), the sample solution (700 μL) obtained in the above-described manner was added to the skin model, and the skin model was allowed to stand in an incubator under conditions of 37° C. at a carbon dioxide concentration of 5%. After the skin model was allowed to stand for 24 hours, the sample solution on the skin model was removed using a pipette, the skin model was taken out from the well and washed with the PBS (−) solution. Subsequently, a slice was cut from the skin model and put into a 2 mL tube. Methanol (1 mL) and stainless steel beads (manufactured by Tomy Company, Ltd., diameter of 5.5 mm) were added to the tube, and the slice was crushed under conditions of 2000 rpm for 10 seconds ten times using MULTI BEADS SHOCKER (manufactured by Yasui Kikai Corporation). After the slice was crushed, the obtained solution was transferred to a 2 mL Eppendorf tube and centrifuged at 12000 rpm for 5 minutes, the supernatant was filtered using a filter (pore size of 0.22 μm), thereby obtaining a skin model extract. Next, the compound (1)-301, the compound (1)-302, the compound (9)-101, and sodium pantothenate in the skin model extract and the receiver liquid were quantified by analyzing each of the compounds (test substances) using HPLC described above, and a total value A (μg) of these quantitative values was calculated. Further, the permeability into the skin model (%) of each of the compound (1)-301 (Example 1), the compound (1)-302 (Example 2), the compound (9)-101 (Reference Example 1), and sodium pantothenate (Comparative Example 1) added to the skin model was calculated according to Equation (i). Permeability (%)=(A/1400)×100 (i)

Permeability (%) | permeability compared with compound (9)-101 | permeability compared with sodium pantothenate | SMILES
41 ± 4.7 | clearly higher permeability | clearly higher permeability | CCCCCCCCCCCCCCCC(=O)OCC(C)(C)C(O)C(=O)NCCC(=O)O (stereo not drawn) [Compound (1)-301, 3-[N-(4-hexadecanoyloxy-3,3-dimethyl-2-hydroxybutyryl)amino]propionic acid]
44 ± 2.7 | clearly higher permeability | clearly higher permeability | CCCCCCCCC(CCCCCC)C(=O)OCC(C)(C)C(O)C(=O)NCCC(=O)O (stereo not drawn) [Compound (1)-302, 3-[N-(4-(2-hexyldecanoyl)oxy-3,3-dimethyl-2-hydroxybutyryl)amino]propionic acid]
29 ± 0.8 |  | clearly higher permeability | CCCCCCCCCC(=O)OCC(C)(C)C(O)C(=O)NCCC(=O)O (stereo not drawn) [Compound (9)-101, 3-[N-(4-decanoyloxy-3,3-dimethyl-2-hydroxybutyryl)amino]propionic acid, reference compound]
18 ± 0.4 |  |  | CC(C)(CO)[C@@H](O)C(=O)NCCC(=O)[O-].[Na+] [Sodium pantothenate, sodium pantothenate, reference compound]
